Data: ChEMBL document CHEMBL1201862, “PubChem BioAssay data set” (2004)
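Following 48 hours of exposure in 96-well plates, responses at five concentrations were used to interpolate endpoints linearly. Here, GI50 denotes the concentration required for 50% inhibition of growth.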 The source made the active and inactive calls. No stated cut-off is given here; in the data, active = GI50 up to about 1.1 µM and inactive = higher.

Legend:
Assay in all cases: NCI tumour cell line growth inhibition, 48 h
COLO 205 = system: COLO 205
DU-145 = system: DU-145
EKVX = system: EKVX
HOP-92 = system: HOP-92
M14 = system: M14
MDA-MB-231 = system: MDA-MB-231
MDA-MB-435 = system: MDA-MB-435
NCI-H23 = system: NCI-H23
NCI-H460 = system: NCI-H460
NCI/ADR-RES = system: NCI/ADR-RES
OVCAR-5 = system: OVCAR-5
OVCAR-8 = system: OVCAR-8
PC-3 = system: PC-3
RXF 393 = system: RXF 393
SN12C = system: SN12C
SNB-19 = system: SNB-19
U-251 = system: U-251
HCC 2998 = system: HCC 2998

Measured: GI50

CCOC(=O)c1ccc(-c2cc(C)no2)[nH]1
inactive: COLO 205 40 µM | DU-145 > 100 µM | EKVX 41.7 µM | HOP-92 > 100 µM | M14 > 100 µM | MDA-MB-231 76 µM | MDA-MB-435 11.4 µM | NCI-H23 > 100 µM | NCI-H460 33.8 µM | NCI/ADR-RES 46.7 µM | OVCAR-5 > 100 µM | OVCAR-8 > 100 µM | PC-3 83.8 µM | RXF 393 > 100 µM | SN12C 33 µM | SNB-19 > 100 µM | U-251 98.4 µM

O=C1NC(=O)c2ccc([N+](=O)[O-])c3cccc1c23
inactive: COLO 205 14.9 µM | DU-145 34 µM | EKVX 28.3 µM | HCC 2998 24.7 µM | HOP-92 20 µM | M14 14.8 µM | MDA-MB-231 17.1 µM | MDA-MB-435 16.4 µM | NCI-H23 17.1 µM | NCI-H460 11.5 µM | OVCAR-5 18.3 µM | OVCAR-8 12.6 µM | PC-3 17.4 µM | RXF 393 15.5 µM | SN12C 17.4 µM | SNB-19 19.5 µM | U-251 15.4 µM

CCN(CC)c1ccc2cc(-c3nnc(-c4ccccc4)[nH]3)c(=O)oc2c1
inactive: COLO 205 > 100 µM | DU-145 14.8 µM | EKVX 22.8 µM | HCC 2998 > 100 µM | M14 > 100 µM | MDA-MB-435 41.9 µM | NCI-H23 6.49 µM | NCI-H460 82 µM | NCI/ADR-RES 21.7 µM | OVCAR-5 28.2 µM | OVCAR-8 3.78 µM | PC-3 14.9 µM | SNB-19 12.2 µM | U-251 15 µM

CC(=O)OCC1OC(N2C(=O)NC(=O)C3C=C4CCCCC4=CC32)CC1OC(C)=O (stereo unspecified)
inactive: DU-145 > 100 µM | EKVX > 100 µM | HOP-92 > 100 µM | M14 > 100 µM | MDA-MB-231 > 100 µM | MDA-MB-435 > 100 µM | NCI-H460 > 100 µM | NCI/ADR-RES > 100 µM | OVCAR-5 > 100 µM | OVCAR-8 > 100 µM | PC-3 > 100 µM | SN12C > 100 µM | SNB-19 > 100 µM | U-251 > 100 µM

N#CC(c1ccccc1)c1cccc2ccccc12 (stereo unspecified)
inactive: COLO 205 40.8 µM | DU-145 50.5 µM | EKVX 37.8 µM | HCC 2998 36.7 µM | M14 30.6 µM | MDA-MB-231 48.6 µM | MDA-MB-435 20.2 µM | NCI-H23 42.1 µM | NCI-H460 35.8 µM | NCI/ADR-RES 39.8 µM | OVCAR-5 85.1 µM | OVCAR-8 27.4 µM | PC-3 22.5 µM | SN12C 68.4 µM | SNB-19 53.5 µM | U-251 48.9 µM

CC1=C(C(=O)Nc2cccc3c2C(=O)NC3=O)CC(C(=O)Nc2cccc3c2C(=O)NC3=O)=C(C)N1
inactive: COLO 205 40.7 µM | DU-145 > 100 µM | EKVX > 100 µM | HCC 2998 95.5 µM | HOP-92 > 100 µM | M14 > 100 µM | MDA-MB-231 > 100 µM | MDA-MB-435 > 100 µM | NCI-H23 > 100 µM | NCI-H460 > 100 µM | OVCAR-5 > 100 µM | PC-3 > 100 µM | RXF 393 > 100 µM | SN12C > 100 µM | SNB-19 > 100 µM | U-251 > 100 µM

c1ccc2c(c1)nc1ccccn12
inactive: COLO 205 > 100 µM | DU-145 > 100 µM | EKVX > 100 µM | HCC 2998 > 100 µM | HOP-92 > 100 µM | M14 > 100 µM | MDA-MB-435 > 100 µM | NCI-H23 > 100 µM | NCI-H460 > 100 µM | NCI/ADR-RES > 100 µM | OVCAR-5 > 100 µM | OVCAR-8 > 100 µM | PC-3 > 100 µM | RXF 393 > 100 µM | SN12C > 100 µM | SNB-19 > 100 µM | U-251 > 100 µM

O=c1[nH]c(=O)n(C2CC(O)C(CO)O2)cc1/N=N/NCc1ccccc1 (stereo unspecified)
inactive: COLO 205 > 10 µM | DU-145 > 100 µM | EKVX > 100 µM | M14 > 100 µM | MDA-MB-231 > 100 µM | MDA-MB-435 > 100 µM | NCI-H23 > 100 µM | NCI-H460 > 100 µM | NCI/ADR-RES > 100 µM | OVCAR-5 > 100 µM | OVCAR-8 > 100 µM | PC-3 > 100 µM | RXF 393 > 100 µM | SN12C > 100 µM | SNB-19 > 100 µM | U-251 > 100 µM

COc1cc([C@@H]2c3cc4c(cc3[C@@H](Nc3ccccc3C(=O)c3ccccc3)[C@H]3COC(=O)[C@H]23)OCO4)cc(OC)c1OC
inactive: DU-145 1.82 µM | EKVX > 54.6 µM | HCC 2998 2.36 µM | MDA-MB-231 1.81 µM | SN12C 1.9 µM | SNB-19 1.37 µM
active: COLO 205 0.472 µM | M14 0.729 µM | MDA-MB-435 0.27 µM | NCI-H23 0.668 µM | NCI-H460 0.442 µM | NCI/ADR-RES 0.479 µM | OVCAR-5 0.885 µM | OVCAR-8 0.47 µM | PC-3 0.622 µM | RXF 393 0.459 µM | U-251 0.362 µM

O=P(O)(O)c1ccc(-c2ccc(I)cc2)cc1
inactive: COLO 205 > 100 µM | DU-145 > 100 µM | EKVX > 100 µM | HCC 2998 > 100 µM | M14 > 100 µM | MDA-MB-231 > 100 µM | NCI-H23 > 100 µM | NCI-H460 > 100 µM | NCI/ADR-RES > 100 µM | OVCAR-5 > 100 µM | OVCAR-8 > 100 µM | PC-3 > 100 µM | RXF 393 13.5 µM | SN12C > 100 µM | SNB-19 > 100 µM | U-251 > 100 µM

Cc1cc(C[C@H]2O[C@@H]3OC(C)(C)O[C@@H]3[C@H]3OC(C)(C)O[C@H]32)c2ccccc2n1
inactive: COLO 205 > 100 µM | DU-145 > 100 µM | EKVX 79.6 µM | HCC 2998 > 100 µM | MDA-MB-435 > 100 µM | NCI-H23 52.7 µM | NCI-H460 30 µM | NCI/ADR-RES 34 µM | OVCAR-5 > 100 µM | OVCAR-8 43.1 µM | PC-3 40.1 µM | RXF 393 39.1 µM | SN12C > 100 µM | SNB-19 > 100 µM | U-251 > 100 µM

COc1cc(/C=C2\CCC/C(=C\c3ccc(OC(=O)CCCCC4CCSS4)c(OC)c3)C2=O)ccc1OC(=O)CCCCC1CCSS1 (stereo unspecified)
inactive: COLO 205 > 100 µM | DU-145 > 100 µM | EKVX > 100 µM | M14 > 100 µM | MDA-MB-231 > 100 µM | MDA-MB-435 > 100 µM | NCI-H23 > 100 µM | NCI-H460 > 100 µM | NCI/ADR-RES > 100 µM | OVCAR-5 > 100 µM | OVCAR-8 > 100 µM | PC-3 > 100 µM | RXF 393 > 100 µM | SN12C > 100 µM | SNB-19 > 100 µM | U-251 > 100 µM

Cc1cc(C)c2c(n1)S(=O)(=O)N(CCCN1CCN(c3cccc(Cl)c3)CC1)C(C(=O)c1ccccc1)=C2O
inactive: COLO 205 18.7 µM | DU-145 36.7 µM | EKVX 26 µM | HOP-92 25.8 µM | M14 25.6 µM | MDA-MB-231 44.1 µM | MDA-MB-435 27 µM | NCI-H23 28.4 µM | NCI-H460 18.5 µM | NCI/ADR-RES 20.6 µM | OVCAR-5 45 µM | OVCAR-8 36.6 µM | PC-3 30.8 µM | SN12C 20 µM | SNB-19 30.2 µM | U-251 37.6 µM

COc1cc(/C=C2\C[C@H]3[C@@H]4CCc5cc(OCCN6CCCC6)ccc5[C@H]4CC[C@]3(C)C2=O)cc(OC)c1OC
inactive: COLO 205 1.48 µM | DU-145 1.87 µM | EKVX 2.39 µM | HCC 2998 1.83 µM | M14 1.67 µM | MDA-MB-231 1.79 µM | MDA-MB-435 1.61 µM | NCI-H23 2.41 µM | NCI-H460 1.76 µM | NCI/ADR-RES 1.91 µM | OVCAR-5 1.67 µM | OVCAR-8 1.63 µM | PC-3 1.73 µM | RXF 393 1.57 µM | SN12C 1.72 µM | SNB-19 2.3 µM

COc1ccc(C2CC3(c4ccccc4)ON=C(c4ccccc4)N3c3ccccc3S2)cc1 (stereo unspecified)
inactive: COLO 205 > 100 µM | DU-145 > 100 µM | EKVX > 100 µM | HCC 2998 > 100 µM | M14 > 100 µM | MDA-MB-231 > 100 µM | MDA-MB-435 > 100 µM | NCI-H23 > 100 µM | NCI-H460 > 100 µM | NCI/ADR-RES > 100 µM | OVCAR-5 > 100 µM | OVCAR-8 > 100 µM | PC-3 > 100 µM | RXF 393 > 100 µM | SN12C > 100 µM | U-251 > 100 µM

O=C(NNC(=O)c1ccccc1O)c1ccccc1O
inactive: EKVX 1.17 µM | HOP-92 2.25 µM | MDA-MB-231 5.24 µM
active: COLO 205 0.355 µM | DU-145 0.0445 µM | HCC 2998 0.0519 µM | M14 0.0785 µM | MDA-MB-435 < 0.01 µM | NCI-H23 0.105 µM | NCI-H460 0.15 µM | NCI/ADR-RES 0.0791 µM | OVCAR-5 0.5 µM | OVCAR-8 0.929 µM | RXF 393 0.0514 µM | SN12C 0.0792 µM | SNB-19 0.0525 µM | U-251 0.116 µM

CCC[C@H]1C(=O)N=C(N)N1C(=O)OCc1ccccc1
inactive: COLO 205 > 100 µM | EKVX > 100 µM | HCC 2998 > 100 µM | MDA-MB-231 > 100 µM | MDA-MB-435 > 100 µM | NCI-H23 > 100 µM | NCI-H460 > 100 µM | NCI/ADR-RES > 100 µM | OVCAR-5 > 100 µM | OVCAR-8 > 100 µM | PC-3 > 100 µM | RXF 393 > 100 µM | SN12C > 100 µM | SNB-19 > 100 µM | U-251 > 100 µM
